Source: US9744164B2, “Neuroprotective polyphenol analogs” (Salk Institute for Biological Studies, priority 2011, dated 2017)
Read-outs that look alike come from different tables or passages of the source.

Columns and labels:
N9 microglial cells = assay: anti-inflammatory assay, LPS-induced microglial activation (NO release); format: cell-based, mouse; conditions: bacterial lipopolysaccharide, derivative 1-10 μM, 24 hr
Method: Anti-inflammatory assay. Mouse N9 microglial cells plated in DME with 7.5% DFCS were treated with 10 μg/ml bacterial lipopolysaccharide (Sigma) alone or in the presence of the Fisetin derivatives (1-10 μM) or Fisetin (10 μM) as a positive control. After 24 hr the medium was removed, spun briefly to remove floating cells and 100 μl assayed for NO using 100 μl of the Griess Reagent (Sigma) in a 96 well plate. After incubation for 10 min at room temperature the absorbance at 550 nm was read on a microplate reader.
Three secondary screens allowed assessment of three key activities of Fisetin that are highly relevant to stroke, as well as other neurological disorders: maintenance of glutathione (GSH), the major endogenous cellular antioxidant, inhibition of LPS-induced microglial activation, an indicator of anti-inflammatory activity and PC12 cell differentiation, a measure of neurotrophic activity. All of these activities are relevant to the nerve cell loss seen in stroke (Gelderblom, et al., Stroke. 2009, 40 (5), 1849-1857; Pandya, et al., Cent. Nerv. Syst. Agents. Med. Chem. (2011) Apr. 27; Lewerenz, et al., J. Neurochem. (2010) 113 (2), 502-504). […] To assess GSH maintenance, total intracellular GSH levels after a 24 hr treatment with the compound both in the absence and presence of glutamate, an inducer of GSH loss and oxidative stress (Tan, et al., Curr. Top. Med. Chem. (2001) 1, 497-506; Maher, et al., Free Radical Research. (2006) 40 (10), 1105-1111) was measured Inhibition of LPS-induced microglial activation was determined by treating N9 mouse microglial cells with LPS alone and in the presence of the compounds and assaying NO release into the medium 24 hr later (Zheng, et al., Int. Immunopharmacol. (2008) 8, (3), 484-494). PC12 cell differentiation was determined by treating PC12 cells with the compounds and looking at neurite outgrowth after 24 hr. In all cases, Fisetin was used as a positive control (Sagara, et al., J. Neurochem. (2004) 90, 1144-1155).
The roles of the four different hydroxyl groups in the activity of Fisetin were studied. […] Cell viability was determined after 24 hr by the MTT assay. The ability to maintain GSH (GSH) was determined by treating HT22 cells with different doses of each derivative (1-10 μM) in the presence of 5 mM glutamate. After 24 hr cell extracts were prepared and analyzed for total GSH. Fisetin (10 μM) was used as a positive control. The ability to induce PC12 cell differentiation (PC12 diff'n) was determined by treating PC12 cells in N2 medium with different doses of each derivative (1-10 μM) for 24 hr. Differentiation was assessed by visual inspection with Fisetin (10 μM) as a positive control. Anti-inflammatory activity (microglia) was assessed in N9 microglial cells treated with bacterial lipopolysaccharide alone or in the presence different doses of each derivative (1-10 μM) for 24 hr. Fisetin was used as a positive control. TEAC values, a measure of direct antioxidant activity, were determined using the ABTS+ decolorization assay.

Nrf2 = Nrf2 induction, SDS-PAGE and Western blotting of nuclear extracts; format: cell-based; conditions: cells treated 1, 2 and 4 hr at most protective concentration
Method: SDS-PAGE and immunoblotting. For immunoblotting of Nrf2, nuclear extracts were prepared as described (Schreiber, et al., Nucleic Acids Res. (1989) 17 (15), 6419) from untreated cells and cells treated with the Fisetin derivatives for 1, 2 and 4 hr. Fisetin was used as a positive control. […] Protein concentrations were determined using the BCA protein assay (Pierce). Equal amounts of protein were solubilized in 2.5× SDS-sample buffer, separated on 10% SDS-polyacrylamide gels and transferred to nitrocellulose. Equal loading and transfer of the samples was confirmed by staining the nitrocellulose with Ponceau-S. Transfers were blocked for 1 hr at room temperature with 5% nonfat milk in TBS/0.1% Tween 20 and then incubated overnight at 4° C. in the primary antibody diluted in 5% BSA in TBS/0.05% Tween 20. The primary antibodies used were: anti-Nrf2 (#SC13032; 1/1000) from Santa Cruz Biotechnology (Santa Cruz, Calif.) and anti-β-actin (#5125; 1/20,000) from Cell Signaling (Beverly, Mass.). The transfers were rinsed with TB S/0.05% Tween 20 and incubated for 1 hr at room temperature in horseradish peroxidase-goat anti-rabbit or goat anti-mouse (Biorad, Hercules, Calif.) diluted 1/5000 in 5% nonfat milk in TBS/0.1% Tween 20. The immunoblots were developed with the Super Signal reagent (Pierce, Rockford, Ill.).
The transcription factor Nrf2 plays a key role in regulating GSH metabolism in many different cell types (Lewerenz, et al., Antioxidant & Redox Signaling. (2011) 14, 1449-1465). We have shown that Fisetin can induce Nrf2 and this correlates with its ability to enhance GSH levels (Maher, P. et al., Genes. Nutr. (2009) Sep. 10). To determine if the derivatives which can maintain GSH levels do so by increasing Nrf2 we looked at Nrf2 levels in the nuclei of derivative-treated cells using Fisetin as a positive control (Table 4). […] This was particularly true for the derivatives based on the quinoline scaffold where none of them increased Nrf2 despite being very effective at maintaining GSH levels.
The ability of the derivatives that maintain GSH levels to induce the transcription factor Nrf2 was assayed by SDS-PAGE and Western blotting of nuclear extracts of untreated and derivative-treated cells. Fisetin treatment was used as a positive control.

[1] = system: embolic strokes in rabbits; assay: rabbit small clot embolic stroke model (RSCEM); format: in vivo
Description: The ability of polyphenol analogs to treat, prevent and/or mitigate one or more symptoms of stroke can also be evaluated in in vivo assays. Such assays are known in the art and find use. One applicable in vivo screening assay is the rabbit clot embolic stroke model, discussed, e.g., in Lapchak, et al., Stroke (2002) 33(9):2279-84 and Lapchak, Exp Neurol. (2007) 205(2):407-13. The rabbit small clot embolic stroke model (RSCEM) and rabbit large clot embolic stroke model (RLCEM) can be used to determine the potential neuroprotective properties and safety profile of test polyphenol analogs after an embolic stroke. Rabbits are embolized by injecting small blood clots (RSCEM) or large blood clots (RLCEM) into the cerebral circulation. Behavioral analysis is conducted 24 hours later, allowing for determination of the effective stroke dose (ES50) or clot amount (milligrams) that produces severe neurological deficits in 50% of rabbits. A drug is considered neuroprotective if it increases the ES50 compared with the vehicle-treated control group.
Either vehicle or bolus injections of chlorogenic acid were administered intravenously over 1 minute starting 5 minutes following embolization using a suspension of small-sized blood clots. In this series of studies, CGA was administered at 50 mg/kg. Behavioral analysis was conducted at 24 hours following treatment, which allowed for the construction of quantal dose-response analysis curves. […] For the superimposed graphs, normal animals are plotted on the y-axis at 0% and abnormal animals are plotted at 100%. […] Moreover, CGA increased the P50 value (the clot dose that produces abnormality in 50% of a treatment group) compared to vehicle control. For a detailed discussion of the methods used to fit the quantal data to a sigmoidal curve, see Zivin and Waud. The pharmacology of chlorogenic acid in the rabbit small clot embolic stroke model (RSCEM) has been published (Lapchak, Exp Neurol. 2007 205(2):407-13). In the manuscript, it is shown that CGA has a therapeutic window of 60 minutes in the RSCEM. FIG. 2 presents the therapeutic window data.
Using the RSCEM assay described above for CGA, the effects of Fisetin (50 mg/kg) on behavioral outcome measured 24 hours following embolization is tested.

[2] = system: embolic strokes in rabbits; conditions: RSCEM, as published in the manuscript; cited from earlier work
PC12 cells = assay: glucose starvation assay; format: cell-based; conditions: PC12 cells starved for glucose, MTT 24 hr
Method: FIG. 5C—PC12 cells were glucose-deprived then were incubates in the absence or presence of Baicalein. Cell viability was determined 24 hr later using the MTT assay. […] When these cells are starved for glucose, there is approximately 70% maximal survival in the presence of NGF. Baicalein promotes over 80% survival (FIG. 5C).

Cc1cc(O)c(C(=O)/C=C/c2ccc(O)c(O)c2)cc1C [CMS-011, (E)-3-(3,4-dihydroxyphenyl)-1-(2-hydroxy-4,5-dimethylphenyl)prop-2-en-1-one]
microglia (anti-inflammatory activity) (N9 microglial cells): 94% | Nrf2 (induction of transcription factor Nrf2) (Nrf2): Yes

O=C(/C=C/c1ccc(O)c(O)c1)c1ccc2ccccc2c1O [CMS-034, (E)-3-(3,4-dihydroxyphenyl)-1-(1-hydroxynaphthalen-2-yl)prop-2-en-1-one]
microglia (anti-inflammatory activity) (N9 microglial cells): 75% | Nrf2 (induction of transcription factor Nrf2) (Nrf2): Yes

Cc1cc2oc(-c3ccc(N(C)C)cc3)c(O)c(=O)c2cc1C [CMS-117, 2-(4-(dimethylamino)phenyl)-3-hydroxy-6,7-dimethyl-4H-chromen-4-one]
microglia (anti-inflammatory activity) (N9 microglial cells): 11% | Nrf2 (induction of transcription factor Nrf2) (Nrf2): No

CN(C)c1ccc(-c2oc3c(ccc4ccccc43)c(=O)c2O)cc1 [CMS-118, 2-(4-(dimethylamino)phenyl)-3-hydroxy-4H-benzo[h]chromen-4-one]
microglia (anti-inflammatory activity) (N9 microglial cells): 0% | Nrf2 (induction of transcription factor Nrf2) (Nrf2): No

Cc1cc2oc(-c3ccc(N4CCCC4)cc3)c(O)c(=O)c2cc1C [CMS-122, 3-hydroxy-6,7-dimethyl-2-(4-(pyrrolidin-1-yl)phenyl)-4H-chromen-4-one]
microglia (anti-inflammatory activity) (N9 microglial cells): 0% | Nrf2 (induction of transcription factor Nrf2) (Nrf2): No

O=C(/C=C/c1ccc(O)c(O)c1)O[C@@H]1C[C@](O)(C(=O)O)C[C@@H](O)[C@H]1O [Chlorogenic Acid, 1,3,4,5-tetrahydroxy-cyclohexanecarboxylic acid 3-(3,4-dihydroxycinnamate)]
behavior when administered 1 hour following embolization ([1]; 1 hour following embolization): effective at improving behavior | behavior when administered 3 hours following embolization ([1]; 3 hours following embolization): neither improve behavior | therapeutic window ([1]; time post-embolization, FIG. 2): 60 min | therapeutic window [2]: 60 min

NGF: NGF, comparator giving approximately 70% maximal survival of glucose-starved PC12 cells
survival (PC12 cells): approximately 70%
